Measurements taken from US20080004290A1, “Anti-Cancer Agents” (THE UNIVERSITY OF QUEENSLAND, priority 2003, published 2008).
Read-outs that look alike come from different tables or passages of the source.

What was measured:
Format in all cases: cell-based, human
[1] = system: SkMel28 melanoma cells; experiment: Cell survival assay (SRB); conditions: SK-MEL-28 (melanoma); read-out: Cytoselectivities (nM) SK-MEL-28
Procedure: (§1) Cell Lines and Culture Medium. All cell lines used in this study have been described previously (Parsons et al., 1986; Todaro et al., 1980; Glenn et al., 2004). All cell lines were cultured in 10% heat-inactivated foetal calf serum (CSL, Australia) in RPMI 1640 medium supplemented with 100 U/mL penicillin, 100 μg/mL streptomycin, and 3 mM HEPES at 5% CO2, 99% humidity at 37° C. Primary human fibroblasts were obtained from neonatal foreskins and cultured in the above medium. Routine mycoplasma tests were performed using Hoechst stain^i and were always negative.
(§2) Cell Survival Assay. Cells were plated into 96-well microtitre plates at 5×10^3 cells/well, and allowed to adhere overnight. Test compounds were added to culture medium at the indicated concentrations, and plates incubated in the above conditions for 24 hours. Following this incubation period, compounds and media were removed, and replaced with fresh culture medium. Cells were then grown for a further 72 hours before assay using sulforhodamine B (SRB; Sigma, St. Louis, Mo.) as previously described. Briefly, the culture medium was removed from the 96-well microtitre plates and the plates washed twice with phosphate buffered saline (PBS), before the cells were fixed with methylated spirits for 15 minutes. The plates were then rinsed with tap water and the fixed cells stained with 50 μL/well of SRB solution (0.4% sulforhodamine B (w/v) in 1% (v/v) acetic acid) over a period of 1 hour. The SRB solution was then removed from the wells and the plates rapidly washed two times with 1% (v/v) acetic acid. Protein bound dye was then solubilised with the addition of 100 μL of 10 mM unbuffered Tris, and incubated for 15 min at 25° C. Plates were then read at 564 nm on a VERSA max tunable microplate reader (Molecular Devices, Sunnyvale, Calif.).
(§3) For comparison their results are also shown for MM96L and NFF cell lines.

[2] = system: DU145 prostate cancer cells; experiment: Cell survival assay (SRB); conditions: DU145 (prostate); read-out: Cytoselectivities (nM) DU145
Procedure: as §1, §2, §3

[3] = system: JAM ovarian cancer cells; experiment: Cell survival assay (SRB); conditions: JAM; read-out: Cytoselectivities (nM) JAM
Procedure: as §1, §2, §3

[4] = system: CI-80-13S ovarian cancer cells; experiment: Cell survival assay (SRB); conditions: CI80-13S; read-out: Cytoselectivities (nM) CI80-13S
Procedure: as §1, §2, §3

[5] = system: MCF-7 breast cancer cells; experiment: Cell survival assay (SRB); conditions: MCF-7 (breast); read-out: Cytoselectivities (nM) MCF-7
Procedure: as §1, §2, §3

[6] = system: HOP62 cells; experiment: Cell survival assay (SRB); conditions: HOP62 (lung); read-out: Cytoselectivities (nM) HOP62
Procedure: as §1, §2

[7] = system: HT29 cells; experiment: Cell survival assay (SRB); conditions: HT29 (colon); read-out: Cytoselectivities (nM) HT29
Procedure: as §1, §2

[8] = system: PC-3 cells; experiment: Cell survival assay (SRB); conditions: PC-3; read-out: Cytoselectivities (nM) PC-3
Procedure: as §1, §2

[9] = system: A549 cells; experiment: Cell survival assay (SRB); conditions: A549 (lung); read-out: Cytoselectivities (nM) A549
Procedure: as §1, §2

[10] = system: H520 cells; experiment: Cell survival assay (SRB); conditions: H520; read-out: Cytoselectivities (nM) H520
Procedure: as §1, §2

[11] = system: SK-MEL-5 cells; experiment: Cell survival assay (SRB); conditions: SK-MEL-5; read-out: Cytoselectivities (nM) SK-MEL-5
Procedure: as §1, §2

[12] = system: T-47D cells; experiment: Cell survival assay (SRB); conditions: T-47D; read-out: Cytoselectivities (nM) T-47D
Procedure: as §1, §2

[13] = system: MM96L melanoma cells; experiment: Cell survival assay (clonogenic survival, SRB); conditions: for SI (Selectivity Index = IC50 (NFF)/IC50 (MM96L)): NFF vs MM96L
Method in brief: (§4)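 Cells (5×10^3/well, RPMI 1640 with 10% FCS) treated 24 h with compound at 0.01-10 μg/mL, then washed and grown 72 h drug-free at 37 °C, 5% CO2. Survival read by SRB staining after methylated-spirit fixation, absorbance 564 nm.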

[14] = system: NFF, neonatal foreskin fibroblasts; experiment: Cell survival assay (clonogenic survival, SRB), normal cells; conditions: SRB
Method in brief: as §4

[15] = MM96L, Table 12, read-out: Cytoselectivities (nM) MM96L
[16] = Table 6, 24 hours with compound, further growth, read-out: IC50 (μM) NFF
[17] = Table 6, 24 hours with compound, further growth, SRB, read-out: IC50 (μM) MM96L
[18] = Table 6, IC50 (NFF)/IC50 (MM96L)
[19] = Homo sapiens, Fibroblast, 24 h, Table 6, 24 hours with compound, further growth, read-out: IC50 (μM) NFF
[20] = Homo sapiens, MM96L, 24 h, Table 6, 24 hours with compound, further growth, SRB, read-out: IC50 (μM) MM96L
[21] = NFF normal fibroblasts, 24 h with compound, further 72 h growth, read-out: IC50 (uM) NFF
[22] = MM96L melanoma, 24 h with compound, further 72 h growth, SRB, read-out: IC50 (uM) MM96L
[23] = Homo sapiens, Fibroblast, NFF normal fibroblasts, 24 h with compound, further 72 h growth, read-out: IC50 (uM) NFF
[24] = Homo sapiens, MM96L, MM96L melanoma, 24 h with compound, further 72 h growth, SRB, read-out: IC50 (uM) MM96L

Structure (SMILES): CN(C)c1ccc(C(=O)N[C@H](CCCCCC(=O)NO)C(=O)Nc2cccc3cccnc23)cc1 [126 R]
- IC50 [1]: 57 nM
- IC50 [2]: 52 nM
- IC50 [3]: 251 nM
- IC50 [4]: 43 nM
- IC50 [5]: 40 nM
- IC50 [6]: 147 nM
- IC50 [7]: 199 nM
- IC50 [8]: 387 nM
- IC50 [9]: 191 nM
- IC50 [10]: 188 nM
- IC50 [11]: 44 nM
- IC50 [12]: 63 nM
- IC50 [13, 15]: 38 nM

Structure (SMILES): O=C(CCCCC[C@@H](NC(=O)c1cc2ccccc2[nH]1)C(=O)Nc1cccc2cccnc12)NO [132 R]
- IC50 [1]: 43 nM
- IC50 [2]: 33 nM
- IC50 [3]: 211 nM
- IC50 [4]: 27 nM
- IC50 [5]: 42 nM
- IC50 [6]: 63 nM
- IC50 [7]: 238 nM
- IC50 [8]: 148 nM
- IC50 [9]: 121 nM
- IC50 [10]: 180 nM
- IC50 [11]: 23 nM
- IC50 [12]: 42 nM
- IC50 [13, 15]: 18 nM

Structure (SMILES): O=C(CCCCC[C@@H](NC(=O)c1ccc(Br)cc1)C(=O)Nc1ccc(-c2ccccc2)cc1)NO [161 R]
- IC50 [1]: 18600 nM
- IC50 [2]: 18600 nM
- IC50 [3]: 18600 nM
- IC50 [4]: 18600 nM
- IC50 [5]: 13000 nM
- IC50 [6]: 18600 nM
- IC50 [7]: 18600 nM
- IC50 [8]: 18600 nM
- IC50 [9]: 18600 nM
- IC50 [10]: 18600 nM
- IC50 [11]: 18600 nM
- IC50 [12]: 18600 nM
- IC50 [13, 15]: 18600 nM

Structure (SMILES): O=C(CCCCC[C@@H](NC(=O)OCc1ccccc1)C(=O)Nc1cccc2cccnc12)NO [148 R]
- IC50 [1]: 43 nM
- IC50 [2]: 39 nM
- IC50 [3]: 65 nM
- IC50 [4]: 29 nM
- IC50 [5]: 29 nM
- IC50 [6]: 65 nM
- IC50 [7]: 139 nM
- IC50 [8]: 269 nM
- IC50 [9]: 104 nM
- IC50 [10]: 46 nM
- IC50 [11]: 20 nM
- IC50 [12]: 51 nM
- IC50 [13, 15]: 22 nM

Structure (SMILES): O=C(/C=C/c1ccccc1)N[C@H](CCCCCC(=O)NO)C(=O)Nc1cccc2cccnc12 [146 R]
- IC50 [1]: 87 nM
- IC50 [2]: 63 nM
- IC50 [3]: 163 nM
- IC50 [4]: 91 nM
- IC50 [5]: 51 nM
- IC50 [6]: 133 nM
- IC50 [7]: 272 nM
- IC50 [8]: 543 nM
- IC50 [9]: 196 nM
- IC50 [10]: 152 nM
- IC50 [11]: 66 nM
- IC50 [12]: 99 nM
- IC50 [13, 15]: 45 nM

Structure (SMILES): CN(C)c1ccc(C(=O)NC(CSCCCC(=O)NO)C(=O)NC(C)(C)C)cc1 (stereo not drawn) [Example 96]
- IC50 [14, 16]: 3.5 ± 0.5 µM
- IC50 [13, 17]: 700 ± 200 nM
- Selectivity [13, 18]: 5.0

Structure (SMILES): CN(C)c1ccc(C(=O)N[C@@H](CSCCCC(=O)NO)C(=O)NCc2cccc3ccccc23)cc1 [Example 75]
- IC50 [14, 19]: 0.42 ± 0.05 µM
- IC50 [13, 20]: 200 ± 20 nM
- Selectivity [13, 18]: 2.1

Structure (SMILES): O=C(CCCCC[C@H](NC(=O)c1cc2ccccc2[nH]1)C(=O)NCc1ccccc1)NO [Example 130]
- IC50 [14, 21]: 1.26 µM
- IC50 ([13]; Homo sapiens, MM96L, most preferred compounds, exemplary examples, read-out: potency of IC50 against the MM96 melanoma cells): ≤ 500 nM
- IC50 [13, 22]: 252 nM
- SI (Selectivity Index = IC50 (NFF)/IC50 (MM96L)) [13]: 5.0

Structure (SMILES): Cc1ccnc(NC(=O)[C@H](CSCCCC(=O)NO)NC(=O)/C=C/c2ccccc2)c1 [Example 99]
- IC50 ([14]; Homo sapiens, Fibroblast, 24 h, Table 7, 24 hours with compound, further growth, read-out: IC50 (μM) NFF): 4 ± 0.6 µM
- IC50 ([13]; Homo sapiens, MM96L, 24 h, Table 7, 24 hours with compound, further growth, SRB, read-out: IC50 (μM) MM96L): 600 ± 200 nM
- Selectivity ([13]; Table 7, IC50 (NFF)/IC50 (MM96L)): 6.5

Structure (SMILES): O=C(CCCCC[C@H](NC(=O)C12CC3CC(CC(C3)C1)C2)C(=O)NCc1ccccc1)NO [Example 139]
- IC50 [14, 21]: 7.13 µM
- IC50 [13, 22]: 3950 nM
- SI (Selectivity Index = IC50 (NFF)/IC50 (MM96L)) [13]: 1.8

Structure (SMILES): CN(C)c1ccc(C(=O)N[C@@H](CSCCCC(=O)NO)C(=O)Nc2cccc3ccccc23)cc1 [Example 65]
- IC50 [14, 19]: 5.9 ± 0.7 µM
- IC50 [13, 20]: 1300 ± 100 nM
- Selectivity [13, 18]: 4.5

Structure (SMILES): O=C(CCCSC[C@H](NC(=O)C1CCC(=O)N1)C(=O)NCc1ccccc1)NO (stereo partly drawn) [Example 56]
- IC50 ([14]; Table 5, 24 hours with compound, further growth, read-out: IC50 NFF): 9.6 ± 0.9 µM
- IC50 ([13]; Table 5, 24 hours with compound, further growth, SRB, read-out: IC50 MM96L): 4400 ± 300 nM
- Selectivity ([13]; Table 5, Selectivity Index = IC50 (NFF)/IC50 (MM96L)): 2.2

Structure (SMILES): CN(C)c1ccc(C(=O)N[C@@H](CSCCCC(=O)NO)C(=O)NC2(Cc3ccccc3)CCCC2)cc1 [Example 87]
- IC50 [14, 16]: 4.2 ± 0.5 µM
- IC50 [13, 17]: 600 ± 100 nM
- Selectivity [13, 18]: 7.0

Structure (SMILES): O=C(CCCCC[C@H](NC(=O)c1ccc(Br)cc1)C(=O)NCc1ccncc1)NO [Example 158]
- IC50 [14, 23]: 5.24 µM
- IC50 [13, 24]: 837 nM
- SI (Selectivity Index = IC50 (NFF)/IC50 (MM96L)) [13]: 6.3

Structure (SMILES): O=C(CCCCC[C@H](NC(=O)OCc1ccccc1)C(=O)NCc1ccccc1)NO [Example 154]
- IC50 [14, 23]: 1.52 µM
- IC50 [13, 24]: 1520 nM
- SI (Selectivity Index = IC50 (NFF)/IC50 (MM96L)) [13]: 1

Structure (SMILES): CN(C)c1ccc(C(=O)NC(CSCCCC(=O)NO)C(=O)NCc2ccc(C(=O)NC(c3ccccc3)C(O)c3ccccc3)cc2)cc1 (stereo not drawn) [Example 112]
- IC50 ([14]; Table 8, 24 hours with compound, further growth, read-out: IC50 (μM) NFF): 14.3 µM
- IC50 ([13]; Table 8, 24 hours with compound, further growth, SRB, read-out: IC50 (μM) MM96): 2870 nM
- Selectivity ([13]; Table 8, IC50 (NFF)/IC50 (MM96L)): 5.0
